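Values below derive from 48-hour exposures of cells grown in 96-well plates, with endpoints linearly interpolated between the two concentrations bracketing the appropriate inhibition level. GI50 = concentration required for 50% inhibition of growth.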 Calls of active or inactive are those of the source. Rule as the data show it: active = GI50 up to about 1.1 µM and inactive = higher. A value given as a limit tells only on which side of the number the result lay.

Test systems include EKVX; K562; SF-539; NCI-H23; SK-OV-3; KM12; RXF 393; HCC 2998; MDA-MB-435; IGROV-1; SR; SF-295; ACHN; Hs-578T; COLO 205; MDA-MB-231; RPMI-8226; HCT-15; SK-MEL-5; Malme-3M.
Holding throughout (experiment): growth of human tumour cells (NCI), 48 h

As to `O=c1nc(Oc2c(F)c(F)c(F)c(F)c2F)ccn1C1OC(CO)C(O)C1O` (stereo unspecified), the GI50 in the assay with EKVX, in the assay with K562, in the assay on SF-539, with NCI-H23, with SK-OV-3 and in the assay on KM12 was > 100 µM (inactive) in each case. For the same molecule, the GI50 with RXF 393 is > 100 µM (inactive); in the assay on HCC 2998, > 100 µM (inactive); with MDA-MB-435, > 100 µM (inactive); in the assay with IGROV-1, > 100 µM (inactive); with SR it was 58.1 µM (inactive); in the assay with SF-295 it was > 100 µM (inactive). In addition, the GI50 is > 100 µM (inactive) with ACHN; > 100 µM (inactive) in the assay with Hs-578T; > 100 µM (inactive) in the assay on COLO 205; > 100 µM (inactive) in the assay on MDA-MB-231; > 100 µM (inactive) in the assay with RPMI-8226; above 100 µM in the assay on HCT-15. In addition, in the assay with SK-MEL-5, the GI50 was > 100 µM (inactive).
Consider `O=C1CC(=O)NC(NN2C(=O)/C(=C/c3ccccc3)N=C2c2ccccc2)=N1`, for which the GI50 was > 100 µM (inactive) in the assay on K562; > 100 µM (inactive) in the assay on SF-539; 39 µM (inactive) with NCI-H23; > 100 µM (inactive) in the assay with Malme-3M; > 100 µM (inactive) in the assay on SK-OV-3; > 100 µM (inactive) with KM12. Moreover, the GI50 in the assay on RXF 393, in the assay with HCC 2998, with MDA-MB-435, in the assay on IGROV-1, in the assay on SR and with SF-295 was > 100 µM (inactive) in each case. Also, the GI50 with ACHN is > 100 µM (inactive); in the assay with Hs-578T it was > 100 µM (inactive); in the assay on COLO 205, > 100 µM (inactive); in the assay on MDA-MB-231, > 100 µM (inactive); in the assay with RPMI-8226, > 100 µM (inactive); in the assay on HCT-15 it was above 100 µM. The GI50 in the assay with SK-MEL-5 is > 100 µM (inactive).
As to `C/C=C/C(O)P1(=O)N(Cc2ccccc2)[C@@H]2CCCC[C@H]2N1Cc1ccccc1` (stereo partly specified), the GI50 with EKVX, in the assay on K562, with SF-539, in the assay on NCI-H23, in the assay with Malme-3M and in the assay with SK-OV-3 was > 25 µM (inactive) each time. Further, the GI50 in the assay on KM12, with RXF 393, in the assay with HCC 2998, in the assay on MDA-MB-435, with IGROV-1 and with SR was > 25 µM (inactive) throughout. Also, the GI50 in the assay on SF-295 is > 25 µM (inactive); in the assay with ACHN it was > 25 µM (inactive); in the assay on Hs-578T, > 25 µM (inactive); with COLO 205 it was > 25 µM (inactive); with MDA-MB-231, > 25 µM (inactive); in the assay with HCT-15, above 25 µM. In addition, the GI50 in the assay on SK-MEL-5 was > 25 µM (inactive).
Regarding `C/C(=C\c1csc(C)n1)[C@@H]1C[C@@H]2O[C@@H]2CCC[C@H](C)[C@H](O)[C@@H](C)C(=O)C(C)(C)[C@@H](O)CC(=O)O1` [EPOTHILONE A], the GI50 with EKVX, with K562, in the assay on SF-539, with NCI-H23, in the assay on SK-OV-3 and in the assay on KM12 was < 0.0001 µM (active) in each case. In addition, the GI50 in the assay on RXF 393, with HCC 2998, with MDA-MB-435, with IGROV-1, in the assay with SR and with SF-295 was < 0.0001 µM (active) each time. Further, the GI50 in the assay with ACHN was < 0.0001 µM (active); with Hs-578T, < 0.0001 µM (active); with COLO 205, < 0.0001 µM (active); with MDA-MB-231, < 0.0001 µM (active); in the assay with RPMI-8226, < 0.0001 µM (active); in the assay on HCT-15, below 0.0001 µM. The GI50 in the assay with SK-MEL-5 is < 0.0001 µM (active).

The record behind these values is ChEMBL document CHEMBL1201862, “PubChem BioAssay data set” (2004).
